Test results taken from US20200030463A1, “USE RADIUM RA-223 […] THE TREATMENT OF MULTIPLE MYELOMA” (Bayer Aktiengesellschaft, priority 2017, published 2020).

How the values were obtained:
[1] = system: JJN-3, L-363, LP-1, MOLP-8, RPMI-8226, OPM-2 and 5TGM1 cells; experiment: Proliferation assays, all cancer cell lines tested; type: cell-based, human and mouse
Experimental: (§1) Proliferation assays were performed with human plasma cell leukemia (JJN-3, L-363), human multiple myeloma (LP-1, MOLP-8, RPMI-8226 and OPM-2) and mouse MM 5TGM1 cells. The corresponding in vivo effects were studied in a syngeneic 5TGM1 mouse MM model. Female C57BL/KaLwRij mice (6-9 weeks old, n=15/group) were inoculated with 5TGM1 cells via tail vein and 26 days later, radium-223 (300 kBq/kg, single iv injection) and/or bortezomib (1 mg/kg ip, twice a week) or vehicle control were administered. The development of the osteolytic lesions was detected by radiography. The hind limbs were used for histological analyses and total activity measurement performed by a gamma-counter. Osteoclast number at tumor-bone interface was measured using TRAP staining.

[2] = system: syngeneic 5TGM1 mouse MM model; experiment: Syngeneic 5TGM1 mouse MM model; type: in vivo; conditions: p<0.05 bortezomib; for osteolytic lesion area: radiography, radium-223 300 kBq/kg single iv and/or bortezomib 1 mg/kg ip twice a week, p=0.01 radium-223, p<0.001 combination
Experimental: as §1

[3] = system: JJN-3 human plasma cell leukemia cells; experiment: Proliferation assay, JJN-3; type: cell-based; conditions: JJN3 cells
Experimental: as §1

[4] = system: OPM-2 human multiple myeloma cells; experiment: Proliferation assay, OPM-2; type: cell-based; conditions: OPM-2 cells
Experimental: as §1

[5] = single dose 250 kBq per kg body weight; cited from earlier work
[6] = system: MOLP-8 human multiple myeloma cells; experiment: Proliferation assay, MOLP-8; type: cell-based; conditions: MOLP-8 cells
Experimental: as §1, with “staining. Bortezomib inhibited proliferation of all cancer cell lines tested at 25 nM (JJN3 and OPM-2 at 2.5 nM) and radium-223 at 800 Bq/ml (L-363 and MOLP-8 at 200 Bq/ml). […] In 5TGM1 MM model, both bortezomib and radium-223 decreased osteolytic lesion area as monotherapy (p<0.05 and p=0.01, respectively). […] All treatments were well tolerated.” for “staining.”

[7] = system: L-363 human plasma cell leukemia cells; experiment: Proliferation assay, L-363; type: cell-based; conditions: L-363 cells
Experimental: as §1, with “staining. Bortezomib inhibited proliferation of all cancer cell lines tested at 25 nM (JJN3 and OPM-2 at 2.5 nM) and radium-223 at 800 Bq/ml (L-363 and MOLP-8 at 200 Bq/ml). […] In 5TGM1 MM model, both bortezomib and radium-223 decreased osteolytic lesion area as monotherapy (p<0.05 and p=0.01, respectively). […] All treatments were well tolerated.” for “staining.”

[8] = system: patients with bone metastases; conditions: cited from earlier work
[9] = system: patients with CRPC and bone metastases; conditions: cited from earlier work
[10] = phase 2 studies, CRPC and bone metastases

SMILES	concentration at which proliferation was inhibited [1] [nM]	number of osteoclasts at tumor-bone interface ([2]; TRAP staining, p<0.01 combination)	osteolytic lesion area [2]	concentration at which proliferation was inhibited [3] [nM]	concentration at which proliferation was inhibited [4] [nM]	activity concentration at which proliferation was inhibited [1] [Bq/ml]	cases of grade 3 neutropenia [5]	observed adverse reactions [5]	activity concentration at which proliferation was inhibited [6] [Bq/ml]	activity concentration at which proliferation was inhibited [7] [Bq/ml]	safety profile ([8]; phase 1 and 2 studies)	disease-related biomarkers (bone ALP, PSA) [8, 10]	pain [8, 10]	median survival longer than placebo ([9]; CRPC with bone metastases) [months]	median overall survival ([9]; Phase III clinical trials)	reduction in risk of death compared with placebo ([9]; overall survival, CRPC with bone metastases) [%]	time to first skeletal-related event ([9]; vs placebo)
CC(C)C[C@H](NC(=O)[C@H](Cc1ccccc1)NC(=O)c1cnccn1)B(O)O [bortezomib]	25	decreased	decreased	2.5	2.5	–	–	–	–	–	–	–	–	–	–	–	–
[Cl][223Ra][Cl] [radium-223, radium-223 dichloride]	–	–	decreased	–	–	800	1/5	diarrhea and reversible myelosuppression	200	200	favorable safety profile with minimal myelotoxicity	improves	reduces pain	2.8	Significant increase	30.5	significantly prolonged
